# Measured values reported in patent publication US10870629B2, “18F-labelled compound for prostate cancer diagnosis, and use thereof” (FUTURECHEM CO., LTD., priority 2017, dated 2020).
# Tests used:
# PSMA protein = target: T1, PSMA protein (Homo sapiens, UniProt Q04609); experiment: Measurement of binding capacity: competition with [125I]15 on 22RV1 cells; details: for IC50: [125I]15 0.1 nM, 37° C., 2 hours, read-out: IC50 (Mean ± SD)
# T1 construct: host or cells: 22RV1 human prostate cancer cells
# Description: RPMI1640 supplemented with 1% BSA (bovine serum albumin) was used as a buffer solution.
# [^125I]15 (0.1 nM) was added to a vessel containing 22RV1 cells (5×10^4), to which [^18F]1-1 to [^18F]1-9 compounds were loaded at 9 concentrations ([…]), followed by stirring at 37° C. for 2 hours. Upon completion of the stirring, the vessel was washed with 2 mL of PBS solution three times, and then the remaining radioactivity and 50% inhibition concentration (nonlinear regression method) were measured using a gamma counter (2480 WIZARD2 Gamma Counter PerkinElmer Co., MA) and GraphPad Prism (GraphPad Software, Inc., CA).
# PC-3 PIP = experiment: Measurement of cellular internalization; assay type: cell-based, human
# Excerpt: Then, the membrane protein and the cytoplasmic protein were separated by using Mem-PER Plus Membrane Protein Extraction Kit and NE-PER Nuclear and Cytoplasmic Extraction Kit (ThermoFisher Scientific). The internalization rate (%) was confirmed by obtaining the radioactivity ratio in the cytoplasmic protein to the total radioactivity.
# PSMA+ PC-3 PIP tumors = experiment: MicroPET/CT in mice transplanted with prostate cancer cell lines; assay type: in vivo, nude mouse; details: for tumor binding (MicroPET/CT, FIG. 3): nude mouse with PC-3 PIP and PC-3 flu tumors; for excretion (MicroPET/CT, FIG. 3): nude mouse, intravenous, 60 minutes imaging
# PSMA+ PC-3 PIP tumor = experiment: Biodistribution test with prostate cancer model mouse
# [1] = 0.5 h after tail vein injection
# T1 sequence (Q04609 whole entry): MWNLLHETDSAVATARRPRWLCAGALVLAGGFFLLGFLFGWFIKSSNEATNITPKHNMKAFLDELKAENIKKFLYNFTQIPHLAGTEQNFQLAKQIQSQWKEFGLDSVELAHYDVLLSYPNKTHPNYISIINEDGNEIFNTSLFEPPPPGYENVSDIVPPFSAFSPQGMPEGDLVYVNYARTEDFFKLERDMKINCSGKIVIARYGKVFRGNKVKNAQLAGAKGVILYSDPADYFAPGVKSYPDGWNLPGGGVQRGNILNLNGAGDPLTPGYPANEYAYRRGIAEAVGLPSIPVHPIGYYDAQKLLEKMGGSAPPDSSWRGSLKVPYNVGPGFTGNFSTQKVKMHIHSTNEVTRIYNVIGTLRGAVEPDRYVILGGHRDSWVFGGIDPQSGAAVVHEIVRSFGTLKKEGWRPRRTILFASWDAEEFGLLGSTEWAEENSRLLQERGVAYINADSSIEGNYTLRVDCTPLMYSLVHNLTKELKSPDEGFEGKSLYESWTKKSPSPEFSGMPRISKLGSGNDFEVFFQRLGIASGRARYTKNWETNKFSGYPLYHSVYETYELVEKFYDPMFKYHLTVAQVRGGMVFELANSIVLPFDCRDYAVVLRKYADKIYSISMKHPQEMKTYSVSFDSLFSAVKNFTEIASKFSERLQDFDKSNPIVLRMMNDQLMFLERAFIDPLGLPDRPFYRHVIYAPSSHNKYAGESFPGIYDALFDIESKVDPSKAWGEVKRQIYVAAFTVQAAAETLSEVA
compound,measurement,setting,value
"O=C(O)CC[C@H](NC(=O)N[C@@H](CCCCNC(=O)Nc1ccc(I)cc1)C(=O)O)C(=O)O [Comparative Example 1, reference compound]",IC50,PSMA protein,30.7 ± 10.2 nM
O=C(O)CC[C@H](NC(=O)N[C@@H](CCCCNC(=O)NCc1cn(CCF)nn1)C(=O)O)C(=O)O [Example 7-1],IC50,PSMA protein,635 ± 263 nM
O=C(O)CC[C@H](NC(=O)N[C@@H](CCCCNC(=O)N(Cc1ccncc1)Cc1cn(CCOCC[18F])nn1)C(=O)O)C(=O)O [Example 7-5],IC50,PSMA protein,11.8 nM
O=C(O)CC[C@H](NC(=O)N[C@@H](CCCCNC(=O)N(Cc1cn(CCOCC[18F])nn1)c1ccncc1)C(=O)O)C(=O)O [Example 7-6],% Internalization ratio (Mean ± SD),PC-3 PIP; 30 min,93.30 ± 2.11%
same,% Internalization ratio (Mean ± SD),PC-3 PIP; 60 min,91.89 ± 5.76%
same,% Internalization ratio (Mean ± SD),PC-3 PIP; 120 min,94.77 ± 2.92%
same,% Internalization ratio (Mean ± SD),PC-3 PIP; 240 min,96.32 ± 1.08%
same,"tumor binding (MicroPET/CT, FIG. 3)",PSMA+ PC-3 PIP tumors,selectively bound to PSMA+PC-3 PIP tumors
same,"excretion (MicroPET/CT, FIG. 3)",PSMA+ PC-3 PIP tumors,rapidly excreted through the kidneys and bladder
same,PIP to blood,PSMA+ PC-3 PIP tumor; [1],14.05 ± 3.61
same,PIP to liver,PSMA+ PC-3 PIP tumor; [1],5.64 ± 6.10
same,PIP to muscle,PSMA+ PC-3 PIP tumor; [1],13.00 ± 4.97
same,PIP to spleen,PSMA+ PC-3 PIP tumor; [1],7.31 ± 3.34
same,PIP/flu,PSMA+ PC-3 PIP tumor; [1],16.00 ± 5.68
same,PIP to blood,PSMA+ PC-3 PIP tumor; 1 h after tail vein injection,30.30 ± 17.05
same,PIP to liver,PSMA+ PC-3 PIP tumor; 1 h after tail vein injection,9.93 ± 13.26
same,PIP to muscle,PSMA+ PC-3 PIP tumor; 1 h after tail vein injection,20.11 ± 14.99
same,PIP to spleen,PSMA+ PC-3 PIP tumor; 1 h after tail vein injection,12.46 ± 16.18
same,PIP/flu,PSMA+ PC-3 PIP tumor; 1 h after tail vein injection,23.08 ± 14.91
same,PIP to blood,PSMA+ PC-3 PIP tumor; 2 h after tail vein injection,36.90 ± 9.52
same,PIP to liver,PSMA+ PC-3 PIP tumor; 2 h after tail vein injection,13.71 ± 12.60
same,PIP to muscle,PSMA+ PC-3 PIP tumor; 2 h after tail vein injection,38.11 ± 14.83
same,PIP to spleen,PSMA+ PC-3 PIP tumor; 2 h after tail vein injection,25.98 ± 8.66
same,PIP/flu,PSMA+ PC-3 PIP tumor; 2 h after tail vein injection,33.32 ± 14.64
same,PIP to blood,PSMA+ PC-3 PIP tumor; 4 h after tail vein injection,42.90 ± 18.49
same,PIP to liver,PSMA+ PC-3 PIP tumor; 4 h after tail vein injection,19.77 ± 11.81
same,PIP to muscle,PSMA+ PC-3 PIP tumor; 4 h after tail vein injection,45.39 ± 22.54
same,PIP to spleen,PSMA+ PC-3 PIP tumor; 4 h after tail vein injection,32.51 ± 10.12
same,PIP/flu,PSMA+ PC-3 PIP tumor; 4 h after tail vein injection,35.69 ± 11.64
same,binding capacity higher than [18F]DCFPyL (Comparative Example 1),PSMA protein,about 6 times
same,binding to the PSMA protein (in words),PSMA protein,most strongly bound
same,IC50,PSMA protein,5.08 nM
O=C(O)CC[C@H](NC(=O)N[C@@H](CCCCNC(=O)NCc1cn(CCOCC[18F])nn1)C(=O)O)C(=O)O [Example 7-4],IC50,PSMA protein,57 ± 33 nM
"O=C(O)CC[C@H](NC(=O)N[C@@H](CCCCNC(=O)Nc1ccc([123I])cc1)C(=O)O)C(=O)O [Comparative Example 1, reference compound]",% Internalization ratio (Mean ± SD),PC-3 PIP; 30 min,91.27 ± 4.03%
same,% Internalization ratio (Mean ± SD),PC-3 PIP; 60 min,86.91 ± 8.13%
same,% Internalization ratio (Mean ± SD),PC-3 PIP; 120 min,94.31 ± 2.94%
same,% Internalization ratio (Mean ± SD),PC-3 PIP; 240 min,95.01 ± 2.58%
same,"tumor binding (MicroPET/CT, FIG. 3)",PSMA+ PC-3 PIP tumors,selectively bound to PSMA+PC-3 PIP tumors
same,"excretion (MicroPET/CT, FIG. 3)",PSMA+ PC-3 PIP tumors,rapidly excreted through the kidneys and bladder
